Test results reported in ChEMBL document CHEMBL2157913, “Synthesis and evaluation of apoptosis induction of thienopyrimidine compounds on KRAS and BRAF mutated colorectal cancer cell lines” (Bioorg Med Chem, 2012).
Activity calls are given as the source filed them. No cut-off for these calls is given here.

Assays:
HeLa = assay: Induction of apoptosis in human HeLa cells expressing wild type KRAS and BRAF assessed as depolarization of mitochondrial membrane after 24 hrs by flow cytometry; assay type: functional, cell-based
HT-29 [1] = assay: Induction of apoptosis in human HT-29 cells expressing BRAF mutant assessed as activation of caspase-3 at 200 uM after 10 mins by flow cytometry relative to control; assay type: functional
HCT-116 = assay: Induction of apoptosis in human HCT116 cells expressing KRAS mutant assessed as depolarization of mitochondrial membrane after 24 hrs by flow cytometry; assay type: functional, cell-based
HT-29 [2] = assay: Induction of apoptosis in human HT-29 cells expressing BRAF mutant assessed as depolarization of mitochondrial membrane after 24 hrs by flow cytometry; assay type: functional, cell-based
HT-29 [3] = assay: Induction of apoptosis in human HT-29 cells expressing BRAF mutant assessed as cell death at 200 uM after 10 mins by flow cytometry; assay type: functional, cell-based
[4] = Homo sapiens, HeLa, 24 h, read-out: IC50
[5] = Homo sapiens, HCT-116, 24 h, read-out: IC50
[6] = Homo sapiens, HT-29, 24 h, read-out: IC50

Row | SMILES | IC50 (HeLa; [4]) | IC50 (HCT-116; hct-116) | IC50 (HT-29 [2]; ht-29) | IC50 (HCT-116; [5]) | IC50 (HT-29 [2]; [6]) | IC50 (HeLa; hela) | Activity (HT-29 [1]) | Activity (HT-29 [3]) | fold change (FC) (HT-29 [1])
1 | COc1ccccc1Nc1ncnc2sc3ccccc3c12 | > 130 µM | Not Active | Not Active | – | – | – | Active | – | –
2 | c1ccc(Nc2ncnc3sc4ccccc4c23)cc1 | > 130 µM | Not Active | Not Active | – | – | – | Active | – | –
3 | Cc1ccccc1CNc1ncnc2sc3ccccc3c12 | > 130 µM | Not Active | Not Active | – | – | – | – | – | –
4 | Cc1ccccc1Nc1ncnc2sc3ccccc3c12 | 129 µM | – | – | 101 µM | 120 µM | – | – | Active | 10
5 | c1ccc(Nc2ncnc3c2sc2ccccc23)cc1 | – | Not Active | Not Active | – | – | Not Active | – | – | –
6 | Cc1ccccc1CNc1ncnc2c1sc1ccccc12 | – | Not Active | Not Active | – | – | Not Active | – | – | –
7 | COc1ccccc1CNc1ncnc2c1sc1ccccc12 | 129 µM | Not Active | Not Active | – | – | – | – | – | –

Continued by falling IC50 (HeLa; [4]), values first:

Row | IC50 (HeLa; [4]) | IC50 (HCT-116; hct-116) | IC50 (HT-29 [2]; ht-29) | IC50 (HCT-116; [5]) | IC50 (HT-29 [2]; [6]) | IC50 (HeLa; hela) | SMILES | Activity (HT-29 [1]) | Activity (HT-29 [3]) | fold change (FC) (HT-29 [1])
8 | 118 µM | Not Active | Not Active | – | – | – | COc1ccc(CNc2ncnc3c2sc2ccccc23)cc1 | – | – | –
9 | 113 µM | – | – | > 130 µM | 126 µM | – | c1ccc(CNc2ncnc3sc4ccccc4c23)cc1 | – | – | –
10 | 109 µM | – | – | 92 µM | 117 µM | – | COc1ccc(Nc2ncnc3sc4ccccc4c23)cc1 | – | Active | 10
11 | 105 µM | Not Active | Not Active | – | – | – | c1ccc(CNc2ncnc3c2sc2ccccc23)cc1 | – | – | –
12 | 102 µM | Not Active | Not Active | – | – | – | CN(C)c1ncnc2sc3ccccc3c12 | – | – | –
13 | 77.7 µM | – | – | 121 µM | 127 µM | – | Cc1ccccc1Nc1ncnc2c1sc1ccccc12 | – | – | –
